In the NIST ThermoML archive (doi:10.1016/j.fluid.2014.04.002):

Assay: xn = mol fraction of the nth substance listed
Conditions: 101 kPa, Liquid; for viscosity: Concentric cylinders viscometry; for mass density: Vibrating tube method

COCCOCCOCCOCCOC [2,5,8,11,14-pentaoxapentadecane] + CCOC(=O)C(C)O
Conditions	mass density, 288.15 K [kg/m3]	mass density, 293.15 K [kg/m3]	mass density, 298.15 K [kg/m3]	mass density, 303.15 K [kg/m3]	viscosity, 288.15 K [mPa·s]	viscosity, 293.15 K [mPa·s]	viscosity, 298.15 K [mPa·s]	viscosity, 303.15 K [mPa·s]
x2 = 0	1016.7	1012.06	1007.42	1002.79	4.353	3.795	3.348	2.983
x2 = 0.0999	1018.51	1013.83	1009.15	1004.48	4.303	3.749	3.299	2.933
x2 = 0.1999	1020.55	1015.83	1011.11	1006.39	4.265	3.713	3.266	2.9
x2 = 0.2999	1022.59	1017.82	1013.05	1008.28	4.226	3.673	3.23	2.864
x2 = 0.3998	1024.79	1019.98	1015.17	1010.34	4.176	3.623	3.181	2.815
x2 = 0.4999	1027.14	1022.26	1017.37	1012.47	4.109	3.557	3.115	2.752
x2 = 0.6001	1029.57	1024.61	1019.64	1014.66	4.027	3.478	3.036	2.681
x2 = 0.6998	1032.25	1027.18	1022.11	1017.03	3.906	3.364	2.929	2.58
x2 = 0.8001	1034.95	1029.8	1024.63	1019.45	3.746	3.219	2.8	2.463
x2 = 0.9	1037.37	1032.09	1026.8	1021.49	3.53	3.028	2.633	2.311
